Laboratory results reported in patent US5496823A, “Pharmaceutical composition for increasing bladder capacity” (Hoechst Japan Limited, priority 1991, dated 1996).

What was measured:
[1] = test system: urination-reflexing constriction of the bladder; assay: urination-reflexing constriction of the bladder (cystometrogram) in anesthetized rats, intravenous administration; assay type: in vivo, SD male rats; conditions: for Bladder capacity, First / Bladder capacity, Second / Urination constriction pressure, First / Urination constriction pressure, Second / Urination threshold pressure, First / Urination threshold pressure, Second: relative level, pre-drug value = 1, mean ± SD
Description: (§1) Effects of test drugs on urination-reflexing constriction of the bladder in anesthetized rats were examined according to Morikawa, et al. [in Oyo Yakuri/Pharmacometrics, Vol. 37, No. 1, pages 27-37, (1989)]. In the following examples, the bladder capacity designates the time from a urination to the next urination (urination interval), urination threshold pressure designates intracystic pressure) immediately prior to initiation of urination constriction and urination constriction pressure designates maximum internal pressure on urination constriction. Figures in the below table indicate relative level from the first and second reactions after administration of a drug taking the measured value before administration of the drug as 1 for bladder capacity (min.), urination threshold pressure (mmHg) and urination constriction pressure (mmHg), respectively.
(§2) Groups of 4-6 SD male rats were used and each animal was subjected to laparotomy under anesthesia with urethan, ligature around the ureter and then exposure of the bladder, on the top of which was perforated with a small opening, through which a cannula with a three-way step cock was inserted.
(§3) One of the three-way stop cock was connected to a syringe for continuously introducing a physiological saline solution and another to a pressure transducer for the measurement of intrasystic pressure.
(§4) A physiological saline solution was introduced into the bladder at a rate of 55 μl per min., and changes in intracystic pressure were recorded until urination. From the intracystic pressure curve were determined bladder capacity, urination threshold pressure and urination constriction pressure to examine the action of the introduction of physiological saline solution.
The drug was given via a polyethylene tube inserted into the femoral vein. […]

[2] = test system: urination-reflexing constriction of the bladder; assay: urination-reflexing constriction of the bladder (cystometrogram) in anesthetized rats, intraduodenal administration; assay type: in vivo, SD male rats; conditions: relative level, pre-drug value = 1, mean ± SD
Description: as §1, §2, §3, §4
Groups of 4-5 SD male rats were fasted overnight and subjected to the same experimental procedures as in Example 1. The drug was given via a polyethylene tube inserted into the duodenum.

[3] = Japanese Patent Publication No. 33120/1977; cited from earlier work

Compound: CCOCn1cnc2c1c(=O)n(CCCCC(C)(C)O)c(=O)n2C [Compound VI, 3,7-dihydro-3-methyl-1-(5-hydroxy-5-methylhexyl)-7-ethoxymethyl-1H-purine-2,6-dione]
- Bladder capacity, First ([1]; Table 3, 20 mg/kg i.v., n=5): 1.8 ± 0.9
- Bladder capacity, Second ([1]; Table 3, 20 mg/kg i.v., n=5): 1.4 ± 1.0
- Urination constriction pressure, First ([1]; Table 3, 20 mg/kg i.v., n=5): 1.0 ± 0.1
- Urination constriction pressure, Second ([1]; Table 3, 20 mg/kg i.v., n=5): 1.0 ± 0.1
- Urination threshold pressure, First ([1]; Table 3, 20 mg/kg i.v., n=5): 1.3 ± 0.9
- Urination threshold pressure, Second ([1]; Table 3, 20 mg/kg i.v., n=5): 1.0 ± 0.4

Compound: CCCn1cnc2c1c(=O)n(CCCCC(C)=O)c(=O)n2C [propentofylline, 3,7-dihydro-3-methyl-1-(5-oxohexyl)-7-propyl-1H-purine-2,6-dione]
- Bladder capacity, First ([1]; 0.2 mg/kg i.v., n=5): 1.2 ± 0.8
- Bladder capacity, Second ([1]; 0.2 mg/kg i.v., n=5): 1.1 ± 0.4
- Urination constriction pressure, First ([1]; 0.2 mg/kg i.v., n=5): 1.0 ± 0.1
- Urination constriction pressure, Second ([1]; 0.2 mg/kg i.v., n=5): 0.9 ± 0.1
- Urination threshold pressure, First ([1]; 0.2 mg/kg i.v., n=5): 1.2 ± 0.5
- Urination threshold pressure, Second ([1]; 0.2 mg/kg i.v., n=5): 1.0 ± 0.3
- Bladder capacity, First ([1]; 1 mg/kg i.v., n=5): 2.5 ± 1.9
- Bladder capacity, Second ([1]; 1 mg/kg i.v., n=5): 0.7 ± 0.2
- Urination constriction pressure, First ([1]; 1 mg/kg i.v., n=5): 1.0 ± 0.1
- Urination constriction pressure, Second ([1]; 1 mg/kg i.v., n=5): 1.1 ± 0.2
- Urination threshold pressure, First ([1]; 1 mg/kg i.v., n=5): 1.1 ± 0.1
- Urination threshold pressure, Second ([1]; 1 mg/kg i.v., n=5): 1.1 ± 0.2
- Bladder capacity, Second ([1]; 5 mg/kg i.v., n=6): 1.0 ± 0.5
- Urination constriction pressure, First ([1]; 5 mg/kg i.v., n=6): 1.0 ± 0.1
- Urination constriction pressure, Second ([1]; 5 mg/kg i.v., n=6): 1.0 ± 0.2
- Urination threshold pressure, First ([1]; 5 mg/kg i.v., n=6): 1.5 ± 0.4
- Urination threshold pressure, Second ([1]; 5 mg/kg i.v., n=6): 1.2 ± 0.6
- Bladder capacity, First ([1]; 5 mg/kg i.v., n=6, P < 0.05): 4.1 ± 2.6
- Bladder capacity, Second ([1]; 10 mg/kg i.v., n=5): 0.9 ± 0.5
- Urination constriction pressure, First ([1]; 10 mg/kg i.v., n=5): 1.0 ± 0.2
- Urination constriction pressure, Second ([1]; 10 mg/kg i.v., n=5): 1.0 ± 0.2
- Urination threshold pressure, Second ([1]; 10 mg/kg i.v., n=5): 1.1 ± 0.3
- Urination threshold pressure, First ([1]; 10 mg/kg i.v., n=5, P < 0.01): 2.1 ± 0.7
- Bladder capacity, First ([1]; 10 mg/kg i.v., n=5, P < 0.05): 3.5 ± 1.1
- Bladder capacity, Second ([1]; 20 mg/kg i.v., n=5): 1.0 ± 0.8
- Urination constriction pressure, First ([1]; 20 mg/kg i.v., n=5): 1.0 ± 0.1
- Urination constriction pressure, Second ([1]; 20 mg/kg i.v., n=5): 1.0 ± 0.1
- Urination threshold pressure, Second ([1]; 20 mg/kg i.v., n=5): 1.5 ± 0.8
- Urination threshold pressure, First ([1]; 20 mg/kg i.v., n=5, P < 0.01): 2.5 ± 0.8
- Bladder capacity, First ([1]; 20 mg/kg i.v., n=5, P < 0.05): 4.9 ± 3.2
- constrictive force of the bladder (in words) ([1]; animal experiments, summary): almost no influence upon constrictive force of the bladder
- substantial bladder capacity / volume (in words) ([1]; animal experiments, summary): increased substantial bladder capacity
- urination intervals (in words) ([1]; animal experiments, summary): prolonged urination intervals
- urination threshold pressure (in words) ([1]; animal experiments, summary): increased urination threshold pressure
- Bladder capacity, First ([2]; 3 mg/kg intraduodenal, n=4): 1.1 ± 0.2
- Bladder capacity, Second ([2]; 3 mg/kg intraduodenal, n=4): 1.1 ± 0.3
- Urination constriction pressure, First ([2]; 3 mg/kg intraduodenal, n=4): 1.1 ± 0.1
- Urination constriction pressure, Second ([2]; 3 mg/kg intraduodenal, n=4): 1.1 ± 0.2
- Urination threshold pressure, First ([2]; 3 mg/kg intraduodenal, n=4): 1.0 ± 0.2
- Urination threshold pressure, Second ([2]; 3 mg/kg intraduodenal, n=4): 1.0 ± 0.2
- Bladder capacity, First ([2]; 10 mg/kg intraduodenal, n=4): 2.7 ± 1.8
- Bladder capacity, Second ([2]; 10 mg/kg intraduodenal, n=4): 1.0 ± 1.0
- Urination constriction pressure, First ([2]; 10 mg/kg intraduodenal, n=4): 1.0 ± 0.1
- Urination constriction pressure, Second ([2]; 10 mg/kg intraduodenal, n=4): 0.9 ± 0.1
- Urination threshold pressure, First ([2]; 10 mg/kg intraduodenal, n=4): 1.3 ± 0.3
- Urination threshold pressure, Second ([2]; 10 mg/kg intraduodenal, n=4): 1.3 ± 0.5
- Bladder capacity, First ([2]; 30 mg/kg intraduodenal, n=5): 2.7 ± 1.6
- Bladder capacity, Second ([2]; 30 mg/kg intraduodenal, n=5): 0.8 ± 0.6
- Urination constriction pressure, First ([2]; 30 mg/kg intraduodenal, n=5): 0.9 ± 0.1
- Urination constriction pressure, Second ([2]; 30 mg/kg intraduodenal, n=5): 1.0 ± 0.1
- Urination threshold pressure, First ([2]; 30 mg/kg intraduodenal, n=5): 1.6 ± 0.9
- Urination threshold pressure, Second ([2]; 30 mg/kg intraduodenal, n=5): 1.4 ± 0.9
- Bladder capacity, Second ([2]; 50 mg/kg intraduodenal, n=5): 0.6 ± 0.2
- Urination constriction pressure, First ([2]; 50 mg/kg intraduodenal, n=5): 1.0 ± 0.1
- Urination constriction pressure, Second ([2]; 50 mg/kg intraduodenal, n=5): 1.0
- Urination threshold pressure, Second ([2]; 50 mg/kg intraduodenal, n=5): 1.4 ± 0.7
- Bladder capacity, First ([2]; 50 mg/kg intraduodenal, n=5, P < 0.01): 4.3 ± 2.1
- Urination threshold pressure, First ([2]; 50 mg/kg intraduodenal, n=5, P < 0.05): 1.7 ± 0.6
- action on vertebral artery (in words) [3]: specifically active on vertebral artery
- blood flow during cerebral circulation (in words) [3]: increase blood flow highly selectively during cerebral circulation
